According to patent publication US20260159810A1, “MEDIUM COMPOSITION FOR INDUCING DIFFERENTIATION FROM STEM CELLS TO MACROPHAGES AND DIFFERENTIATION METHOD USING SAME” (SUNGKWANG MEDICAL FOUNDATION, priority 2022, published 2026):

Experiments:
mouse thymus cells = assay: Measurement of phagocytosis: differentiated macrophages co-cultured with fluorescently stained target cells; assay type: cell-based; conditions: various E:T ratios; cells positive for both CD11b and target-cell fluorescence; FIG. 7
Protocol: Phagocytosis of macrophages obtained from Example 1 and Comparative Example 1 was confirmed. Specifically, macrophages (effectors) obtained from Example 1 and Comparative Example 1 were co-cultured with mouse thymus cells (targets, fluorescently stained) at various E:T (effector:target) ratios. After co-culture, cells were collected and phagocytosis of macrophages was measured by measuring cells that simultaneously expressed macrophage-specific markers (CD11b) and fluorescence that had been stained on target cells.

[1] = tested on: macrophage-specific markers (MHC 1, MHC 2, CD11b, CD86, CX3CR1, CD16) in hPSC-derived floating cells; assay: Identification of macrophage-specific markers by FACS; assay type: cell-based, human; conditions: medium supplemented with fasudil during differentiation to macrophages
Protocol: The expression pattern of markers specific to macrophages in the cells obtained in Example 1, Comparative Example 1, and Comparative Example 2 was investigated. Specifically, confirmation was performed using fluorescence-activated cell sorting (FACS, BD FACSCalibur™). Results of cells expressing CD11b, a surface marker of macrophages, and CD86, which is expressed in antigen presenting cells, confirmed through FACS are shown in FIG. 5. Results of cells expressing CX3CR1, which regulates macrophage function in inflammatory sites, and CD16, which is associated with antibody-dependent cell-mediated cytotoxicity (ADCC), confirmed through FACS are shown in FIG. 6.

O=S(=O)(c1cccc2cnccc12)N1CCCNCC1 [fasudil]
phagocytosis of macrophages (mouse thymus cells): increased
expression of macrophage-specific markers [1]: increased
